Assays:
[1] = system: normal human epidermal keratinocytes (NHEKs); experiment: Total protease activity of NHEK conditioned medium (BODIPY FL casein); format: cell-based; conditions: 800 μg ml applied to 24-hour posttreatment conditioned medium
Description: (§1) Culture of primary human keratinocytes. Neonatal NHEKs (ThermoFisher Scientific, Waltham, MA) were cultured in EpiLife medium (ThermoFisher Scientific) supplemented with 1× EpiLife defined growth supplement (ThermoFisher Scientific), 60 μM CaCl2, and 1× antibiotic-antimycotic (PSA; 100 U/ml penicillin, […] streptomycin, 250 ng/ml amphotericin B; ThermoFisher Scientific) at 37° C., 5% CO2. For experiments, NHEKs were grown to 70% confluency followed by differentiation in high calcium EpiLife medium (2 mM CaCl2) for 48 hours before treatment with bacteria sterile filtered supernatant. […] For bacterial supernatant treatments, differentiated NHEKs were treated with sterile filtered bacterial supernatant at 5% by volume to EpiLife medium. NHEKs were only used for experiments between passages 3 and 5.
(§2) Protease activity assays. […] Relative fluorescent intensity was analyzed with a SpectraMAX Gemini EM fluorometer (ThermoFisher Scientific) at RTwith readings every 2 hours for 24 hours. BODIPY FL casein plates were read at ex: 485 nm and em: 530 nm. Elastin-like and MMP substrate plates were read at ex: 485 nm and em: 515 nm. Trypsin-like substrate plates were read at ex: 354 nm and em: 435 nm.

[2] = system: normal human epidermal keratinocytes (NHEKs); experiment: Trypsin-like activity of NHEK conditioned medium (Boc-Val-Pro-Arg-AMC substrate); format: cell-based
Description: as §1
as §2, with “435 nm. […]” for “435 nm.”
Trypsin Activity Analysis. […] Relative fluorescent intensity (ex: 354 nm, em: 435 nm) was analyzed with a SpectraMAX Gemini EM fluorometer (Thermo Fisher Scientific). […]

[3] = system: KLK mRNA expression in NHEKs; experiment: KLK mRNA expression in NHEKs by quantitative real-time PCR; format: cell-based, human; conditions: synthetic peptide, normalized to GAPDH
Description: Quantitative real-time PCR. RNA was isolated from NHEKs using Purelink RNA isolation columns (ThermoFisher Scientific) according to the manufacturer's instructions. RNA was quantified using a Nanodrop spectrophotometer (ThermoFisher Scientific), and 500 ng of RNA was reverse-transcribed using the iScript cDNA synthesis kit (Bio-Rad, Irvine, CA). Quantitative real-time PCR reactions were ran on a CFX96 real-time detection system (Bio-Rad) using gene-specific primers and TaqMan probes (ThermoFisher Scientific).
RNA isolation and quantitative real-time PCR. All RNA was isolated using the Purelink RNA isolation kit according to manufacturer's instructions (Thermo Fisher Scientific). For NHEKs, 350 μL RNA lysis buffer (with 1% β-mercaptoethanol) was added directly to cells. For mouse tissue, 0.5 cm^2 full thickness skin was bead beat (2× 30 sec, 2.0 mm zirconia bead) in 750 μL of RNA lysis buffer with 5 minutes on ice in between. Tissue was than centrifuged (10 min, 13,000 RPM, 4° C.), followed by adding 350 μL of clear lysate to 70% EtOH and column based isolation of RNA. […] After RNA isolation, samples were quantified with a Nanodrop (ThermoFisher Scientific), and 500 ng of RNA was reverse-transcribed using the iScript cDNA synthesis kit (Bio-Rad). qPCR reactions were ran on a CFX96 Real-Time Detection System (Bio-Rad). […]

[4] = system: normal human epidermal keratinocytes (NHEKs); experiment: RNA-Seq transcriptional profiling of NHEKs; format: cell-based; conditions: synthetic peptide, 24 h
Description: RNA sequencing. RNA was submitted to the University of California, San Diego (UCSD) genomic core facility for library preparation and sequencing. TruSeq mRNA Library Prep Kit (Illumina) was used for library prep followed by high-throughput sequencing on a HiSeq 2500 sequencer (Illumina). Data was analyzed using Partek Flow and Partek Genomics Suite software and gene ontology analysis was performed using the PANTHER classification system (http[://]pantherdb.org).

Substance | effect of serine protease inhibitor on S. aureus-induced total protease activity [1] | dose and time dependence of trypsin activity stimulation in NHEKs ([2]; synthetic peptide) | trypsin activity in NHEKs treated with synthetic PSM peptide ([2]; synthetic peptide added to NHEKs for up to 24 h) | dose and time dependence of KLK6 mRNA expression in NHEKs [3] | transcriptional profile (RNA-Seq) of NHEKs [4]
aprotinin | confirmed that this activity was due to serine proteases |  |  |  | 
f-MEFVAKLFKFFKDLLGKFLGNN [PSMα3] |  | dose and time dependent manner | strongest PSMα trypsin activity inducers | dose and time dependent manner | broad effect on expression of genes related to the skin barrier

— patent publication US20240325460A1, “MOLECULAR BACTE[…] CONTROL SKIN ENZYMATIC ACTIVITY” (The Regents of the University of California, priority 2017, published 2024)
